The record followed here is ChEMBL document CHEMBL1201862, “PubChem BioAssay data set” (2004).

Test systems include T47D; K562; HCT-15; SF-295; SW-620; SK-OV-3; UACC-257; SK-MEL-2; UO-31; ACHN; NCI-H460; SK-MEL-28; MCF7; OVCAR-8; DU-145; NCI-H226; NCI-H23; COLO 205; RPMI-8226.
What all share (assay): NCI anticancer screen, dose series, 48 h

SMILES strings stand for the structures.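 How tested: cells in 96-well plates exposed to compound for 48 hours at five concentrations. GI50 = concentration required for 50% inhibition of growth.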 The source made the active and inactive calls. No stated cut-off is given here; in the data, active = GI50 up to about 1.1 µM and inactive = higher. Some results are limits rather than exact numbers.

As for `Oc1ccc2ccccc2c1OCc1nnc(CCCCCCCCc2nnc(COc3c(O)ccc4ccccc34)n2Nc2ccccc2)n1Nc1ccccc1`, the GI50 with T47D was 25.9 µM (inactive); with K562, 0.0407 µM (active); with HCT-15, 16.5 µM; in the assay with SF-295, 0.223 µM (active); with SW-620 it was 18 µM (inactive); in the assay with SK-OV-3 it was 16.5 µM (inactive). Moreover, the GI50 was 6.38 µM (inactive) with UACC-257; 18.2 µM (inactive) in the assay with SK-MEL-2; 7.46 µM (inactive) in the assay with UO-31; 1.23 µM (inactive) in the assay with ACHN; 2.7 µM (inactive) in the assay on NCI-H460; 5.14 µM (inactive) in the assay on SK-MEL-28. Also, the GI50 was 5.62 µM (inactive) in the assay with MCF7; 20.9 µM (inactive) in the assay with OVCAR-8; 19.7 µM (inactive) in the assay on DU-145; 8.32 µM (inactive) in the assay with NCI-H226; 9.29 µM (inactive) with NCI-H23; 0.399 µM (active) in the assay on COLO 205. Further, the GI50 in the assay on RPMI-8226 is 1.02 µM (active).
For the compound `CC(=O)NC(=O)/N=C1\NCCC(=O)N1CCc1c[nH]c2ccccc12`, the GI50 with T47D was > 100 µM (inactive); with K562, > 100 µM (inactive); in the assay with HCT-15 it was over 100 µM; with SF-295, > 100 µM (inactive); in the assay on SW-620, > 100 µM (inactive); in the assay with SK-OV-3 it was > 100 µM (inactive). For the same compound, the GI50 in the assay on UACC-257, in the assay on SK-MEL-2, with UO-31, in the assay with ACHN, in the assay on NCI-H460 and in the assay on SK-MEL-28 was > 100 µM (inactive) in each case. For the same compound, the GI50 with MCF7, in the assay on OVCAR-8, with DU-145, with NCI-H226, in the assay with NCI-H23 and in the assay on COLO 205 was > 100 µM (inactive) throughout. For the same compound, the GI50 in the assay with RPMI-8226 is > 100 µM (inactive).
For `CC(=O)N(CN1C(=O)CCC1C(=O)O)c1ccc(C)cc1` (stereo not given), the GI50 in the assay with T47D was > 100 µM (inactive); in the assay with K562 it was > 100 µM (inactive); with HCT-15, over 100 µM; in the assay with SF-295, > 100 µM (inactive); with SW-620, > 100 µM (inactive); in the assay with SK-OV-3, > 100 µM (inactive). The GI50 in the assay on UACC-257, in the assay with SK-MEL-2, with UO-31, in the assay with ACHN, in the assay on NCI-H460 and with SK-MEL-28 was > 100 µM (inactive) throughout. Moreover, the GI50 with MCF7, in the assay on OVCAR-8, in the assay on DU-145, with NCI-H226, with NCI-H23 and in the assay on COLO 205 was > 100 µM (inactive) in each case. For the same compound, the GI50 with RPMI-8226 was > 100 µM (inactive).
With `COc1cccc(N2C(=O)C3c4[nH]c5ccccc5c4C4c5ccccc5CCC4C3C2=O)c1` (stereo not given), the GI50 was > 10 µM (inactive) in the assay on T47D; > 10 µM (inactive) with K562; over 10 µM in the assay on HCT-15; > 10 µM (inactive) with SF-295; > 9.14 µM (inactive) in the assay on SW-620; > 4.86 µM (inactive) in the assay with SK-OV-3. In addition, the GI50 in the assay on SK-MEL-2 is > 10 µM (inactive); in the assay on UO-31, 4.27 µM (inactive); with ACHN it was > 10 µM (inactive); in the assay with NCI-H460 it was 4.82 µM (inactive); with SK-MEL-28, > 9.55 µM (inactive); in the assay on MCF7, > 10 µM (inactive). Besides, the GI50 in the assay on OVCAR-8 is 2.34 µM (inactive); in the assay with DU-145, > 10 µM (inactive); with NCI-H226 it was > 4.37 µM (inactive); with NCI-H23, > 10 µM (inactive); in the assay on COLO 205, > 7.87 µM (inactive); in the assay with RPMI-8226 it was > 10 µM (inactive).
